{"source": "patent US11357779B2", "about": "(G1 Therapeutics, Inc., priority 2018, dated 2022)", "test": "Plasma concentration versus time of Compound I and metabolite Compound III in patients dosed QD or BID with Form B of Compound II plus fulvestrant", "format": "in vivo, human", "details": "human, plasma, oral, read-out: Compound I Concentration", "excerpt": "Patients were enrolled into 1 of 2 parallel, independently operating, dose-escalation dosing cohorts with Form B of Compound II administered continuously either once daily (QD) or twice daily (BID) with food with fixed-dose fulvestrant (intramuscularly every 14 days for the first three injections and then every 28 days). Pre- or perimenopausal patients also received goserelin for the duration of study treatment. A […] agonist was started at least 28 days before the first dose of Form B, and those patients who were taking another LHRH agonist were switched to goserelin on Day 1. Patients were split into […] cohorts providing once a day (QD) dosing of 200 mg, 300 mg, 400 mg, 500 mg, or 650 mg of Form B, or twice a day (BID) dosing of 100 mg, 150 mg, or 200 mg of Form B. The second dose in BID cohorts was not administered in the evening until at least 12 hours after the initial morning dose of Form B. The dosing cohorts for Form B of Compound II are provided in Table 1.\nBlood samples were collected at the following time points relative to the morning dose of Form B at Day 1 and at Day 29: pre-dose (0 hour) and 1, 2, 3, 4, 6, 8, 10, 12 (prior to the evening dose in the BID cohorts), and 24 (prior to the next day's morning dose) hours after dosing. A 5-minute time window was allowed for samples collected between the predose and 3 hours after Form B dosing. A 15-minute window was allowed for samples collected between 4 to 12 hours after Form B dosing. A 1-hour window was allowed for the sample collected 24 hours after Form B dosing. Blood samples for Compound I PK trough levels were collected pre-dose at Day 8, Day 15, and Day 22 prior to the morning administration of Compound I. Plasma concentrations of Compound I and its metabolite, Compound III, were measured using validated methods.\nAnalysis of plasma concentration versus time data for calculation of standard pharmacokinetic (PK) parameters following oral administration was conducted using Phoenix WinNonlin version 6.3 using actual blood sampling times.", "note": "Like-named read-outs stand apart in the source and are kept apart here."}
{"smiles": "CC(C)N1CCN(c2ccc(Nc3ncc4cc5n(c4n3)C3(CCCCC3)CNC5=O)nc2)CC1", "note": "[Compound I, 2′-((5-(4-isopropylpiperazin-1-yl)pyridin-2-yl)amino)-7′,8′-dihydro-6′H-spiro[cyclohexane-1,9′-pyrazino[1′,2′:1,5]pyrrolo[2,3-d]pyrimidin]-6′-one]", "values": [{"measurement": "concentration at 1 h", "setting": "300 mg, 300 mg QD of Form B, Day 29, 1.0 h, Median", "value": 15.4, "unit": "ng/mL"}, {"measurement": "concentration at 2 h", "setting": "300 mg, 300 mg QD of Form B, Day 29, 2.0 h, Mean", "value": 22.6, "unit": "ng/mL"}, {"measurement": "concentration at 2 h", "setting": "300 mg, 300 mg QD of Form B, Day 29, 2.0 h, Median", "value": 19.5, "unit": "ng/mL"}, {"measurement": "concentration at 3 h", "setting": "300 mg, 300 mg QD of Form B, Day 29, 3.0 h, Mean", "value": 31, "unit": "ng/mL"}, {"measurement": "concentration at 3 h", "setting": "300 mg, 300 mg QD of Form B, Day 29, 3.0 h, Median", "value": 26.3, "unit": "ng/mL"}, {"measurement": "concentration at 4 h", "setting": "300 mg, 300 mg QD of Form B, Day 29, 4.0 h, Mean", "value": 44.9, "unit": "ng/mL"}, {"measurement": "concentration at 4 h", "setting": "300 mg, 300 mg QD of Form B, Day 29, 4.0 h, Median", "value": 34.2, "unit": "ng/mL"}, {"measurement": "concentration at 6 h", "setting": "300 mg, 300 mg QD of Form B, Day 29, 6.0 h, Mean", "value": 35.9, "unit": "ng/mL"}, {"measurement": "concentration at 6 h", "setting": "300 mg, 300 mg QD of Form B, Day 29, 6.0 h, Median", "value": 39.2, "unit": "ng/mL"}, {"measurement": "concentration at 8 h", "setting": "300 mg, 300 mg QD of Form B, Day 29, 8.0 h, Mean", "value": 31.5, "unit": "ng/mL"}, {"measurement": "concentration at 8 h", "setting": "300 mg, 300 mg QD of Form B, Day 29, 8.0 h, Median", "value": 33.3, "unit": "ng/mL"}, {"measurement": "concentration at 10 h", "setting": "300 mg, 300 mg QD of Form B, Day 29, 10.0 h, Mean", "value": 25.6, "unit": "ng/mL"}, {"measurement": "concentration at 10 h", "setting": "300 mg, 300 mg QD of Form B, Day 29, 10.0 h, Median", "value": 18.9, "unit": "ng/mL"}, {"measurement": "concentration at 12 h", "setting": "300 mg, 300 mg QD of Form B, Day 29, 12.0 h, Mean", "value": 26.4, "unit": "ng/mL"}, {"measurement": "concentration at 12 h", "setting": "300 mg, 300 mg QD of Form B, Day 29, 12.0 h, Median", "value": 20.5, "unit": "ng/mL"}, {"measurement": "concentration at 24 h", "setting": "300 mg, 300 mg QD of Form B, Day 29, […], Mean", "value": 14.4, "unit": "ng/mL"}, {"measurement": "concentration at 24 h", "setting": "300 mg, 300 mg QD of Form B, Day 29, […], Median", "value": 10.9, "unit": "ng/mL"}, {"measurement": "concentration at 0 h", "setting": "400 mg, 400 mg QD of Form B, Day 1, 0.0 h, Mean", "value": 0, "unit": "ng/mL"}, {"measurement": "concentration at 0 h", "setting": "400 mg, 400 mg QD of Form B, Day 1, 0.0 h, Median", "value": 0, "unit": "ng/mL"}, {"measurement": "concentration at 1 h", "setting": "400 mg, 400 mg QD of Form B, Day 1, 1.0 h, Mean", "value": 5.32, "unit": "ng/mL"}, {"measurement": "concentration at 1 h", "setting": "400 mg, 400 mg QD of Form B, Day 1, 1.0 h, Median", "value": 2.26, "unit": "ng/mL"}, {"measurement": "concentration at 2 h", "setting": "400 mg, 400 mg QD of Form B, Day 1, 2.0 h, Mean", "value": 5.67, "unit": "ng/mL"}, {"measurement": "concentration at 2 h", "setting": "400 mg, 400 mg QD of Form B, Day 1, 2.0 h, Median", "value": 4.83, "unit": "ng/mL"}, {"measurement": "concentration at 3 h", "setting": "400 mg, 400 mg QD of Form B, Day 1, 3.0 h, Mean", "value": 9.21, "unit": "ng/mL"}, {"measurement": "concentration at 3 h", "setting": "400 mg, 400 mg QD of Form B, Day 1, 3.0 h, Median", "value": 9.38, "unit": "ng/mL"}, {"measurement": "concentration at 4 h", "setting": "400 mg, 400 mg QD of Form B, Day 1, 4.0 h, Mean", "value": 14, "unit": "ng/mL"}, {"measurement": "concentration at 4 h", "setting": "400 mg, 400 mg QD of Form B, Day 1, 4.0 h, Median", "value": 13.1, "unit": "ng/mL"}, {"measurement": "concentration at 6 h", "setting": "400 mg, 400 mg QD of Form B, Day 1, 6.0 h, Mean", "value": 20.1, "unit": "ng/mL"}, {"measurement": "concentration at 6 h", "setting": "400 mg, 400 mg QD of Form B, Day 1, 6.0 h, Median", "value": 21.6, "unit": "ng/mL"}, {"measurement": "concentration at 8 h", "setting": "400 mg, 400 mg QD of Form B, Day 1, 8.0 h, Mean", "value": 15.5, "unit": "ng/mL"}, {"measurement": "concentration at 8 h", "setting": "400 mg, 400 mg QD of Form B, Day 1, 8.0 h, Median", "value": 16, "unit": "ng/mL"}, {"measurement": "concentration at 10 h", "setting": "400 mg, 400 mg QD of Form B, Day 1, 10.0 h, Mean", "value": 10.6, "unit": "ng/mL"}, {"measurement": "concentration at 10 h", "setting": "400 mg, 400 mg QD of Form B, Day 1, 10.0 h, Median", "value": 9.56, "unit": "ng/mL"}, {"measurement": "concentration at 12 h", "setting": "400 mg, 400 mg QD of Form B, Day 1, 12.0 h, Mean", "value": 7.69, "unit": "ng/mL"}, {"measurement": "concentration at 12 h", "setting": "400 mg, 400 mg QD of Form B, Day 1, 12.0 h, Median", "value": 8.13, "unit": "ng/mL"}, {"measurement": "concentration at 24 h", "setting": "400 mg, 400 mg QD of Form B, Day 1, […], Mean", "value": 3.27, "unit": "ng/mL"}, {"measurement": "concentration at 24 h", "setting": "400 mg, 400 mg QD of Form B, Day 1, […], Median", "value": 3.31, "unit": "ng/mL"}, {"measurement": "concentration at 0 h", "setting": "400 mg, 400 mg QD of Form B, Day 29, 0.0 h, Mean", "value": 6.8, "unit": "ng/mL"}, {"measurement": "concentration at 0 h", "setting": "400 mg, 400 mg QD of Form B, Day 29, 0.0 h, Median", "value": 7.52, "unit": "ng/mL"}, {"measurement": "concentration at 1 h", "setting": "400 mg, 400 mg QD of Form B, Day 29, 1.0 h, Mean", "value": 8.07, "unit": "ng/mL"}, {"measurement": "concentration at 1 h", "setting": "400 mg, 400 mg QD of Form B, Day 29, 1.0 h, Median", "value": 9.88, "unit": "ng/mL"}, {"measurement": "concentration at 2 h", "setting": "400 mg, 400 mg QD of Form B, Day 29, 2.0 h, Mean", "value": 11.1, "unit": "ng/mL"}, {"measurement": "concentration at 2 h", "setting": "400 mg, 400 mg QD of Form B, Day 29, 2.0 h, Median", "value": 13.4, "unit": "ng/mL"}, {"measurement": "concentration at 3 h", "setting": "400 mg, 400 mg QD of Form B, Day 29, 3.0 h, Mean", "value": 14.2, "unit": "ng/mL"}, {"measurement": "concentration at 3 h", "setting": "400 mg, 400 mg QD of Form B, Day 29, 3.0 h, Median", "value": 17.2, "unit": "ng/mL"}, {"measurement": "concentration at 4 h", "setting": "400 mg, 400 mg QD of Form B, Day 29, 4.0 h, Mean", "value": 17, "unit": "ng/mL"}, {"measurement": "concentration at 4 h", "setting": "400 mg, 400 mg QD of Form B, Day 29, 4.0 h, Median", "value": 21.2, "unit": "ng/mL"}, {"measurement": "concentration at 6 h", "setting": "400 mg, 400 mg QD of Form B, Day 29, 6.0 h, Mean", "value": 18.9, "unit": "ng/mL"}, {"measurement": "concentration at 6 h", "setting": "400 mg, 400 mg QD of Form B, Day 29, 6.0 h, Median", "value": 23.2, "unit": "ng/mL"}, {"measurement": "concentration at 8 h", "setting": "400 mg, 400 mg QD of Form B, Day 29, 8.0 h, Mean", "value": 17, "unit": "ng/mL"}, {"measurement": "concentration at 8 h", "setting": "400 mg, 400 mg QD of Form B, Day 29, 8.0 h, Median", "value": 20.5, "unit": "ng/mL"}, {"measurement": "concentration at 10 h", "setting": "400 mg, 400 mg QD of Form B, Day 29, 10.0 h, Mean", "value": 14.2, "unit": "ng/mL"}, {"measurement": "concentration at 10 h", "setting": "400 mg, 400 mg QD of Form B, Day 29, 10.0 h, Median", "value": 17.1, "unit": "ng/mL"}, {"measurement": "concentration at 12 h", "setting": "400 mg, 400 mg QD of Form B, Day 29, 12.0 h, Mean", "value": 11.8, "unit": "ng/mL"}, {"measurement": "concentration at 12 h", "setting": "400 mg, 400 mg QD of Form B, Day 29, 12.0 h, Median", "value": 13.5, "unit": "ng/mL"}, {"measurement": "concentration at 24 h", "setting": "400 mg, 400 mg QD of Form B, Day 29, […], Mean", "value": 6.26, "unit": "ng/mL"}, {"measurement": "concentration at 24 h", "setting": "400 mg, 400 mg QD of Form B, Day 29, […], Median", "value": 7.04, "unit": "ng/mL"}, {"measurement": "concentration at 0 h", "setting": "500 mg, 500 mg QD of Form B, Day 1, 0.0 h, Mean", "value": 0, "unit": "ng/mL"}]}
